{"source": "paper PMC6600469", "about": "“Synthesis and Biological Evaluation of NH2-Sulfonyl Oseltamivir Analogues as Influenza Neuraminidase Inhibitors” (Molecules, 2019)", "key": {"[1]": {"molecular_target": "H5N1 neuraminidase (A/Anhui/2005) (Influenza A virus (H5N1), UniProt A0A0C5AGB3)", "assay": "biochemical", "type": "biochemical, influenza A H5N1 (A/Anhui/2005)", "conditions": "for inhibition at 10 µM / inhibition at 100 µM: read-out: inhibition rate against NA from H5N1 subtype"}, "[2]": {"assay": "Metabolic stability in human liver microsomes in vitro", "conditions": "for Remaining (T = 60 min): human liver microsomes 0.5 mg/mL, 37 °C, 60 min incubation; for half-life: human, liver microsomes"}, "mutant NAs": {"system": "mutant NAs", "conditions": "cited from earlier work"}, "neuraminidase": {"molecular_target": "neuraminidase", "conditions": "cited from earlier work"}, "[3]": {"system": "NAs from H5N1 (A/Chicken/China/1220/2012)", "conditions": "read-out: IC50 against NAs from H5N1; cited from earlier work"}}, "data": [{"smiles": "CCC(CC)O[C@@H]1C=C(C(=O)O)C[C@H](NS(C)(=O)=O)[C@H]1NC(C)=O", "note": "[4a, (3R, 4R, 5S)-4-acetamido-5-(methylsulfonyl)amino-3-(pentan-3-yloxy) cyclohex-1-enecarboxylic acid]", "values": [{"measurement": "inhibition at 10 µM", "setting": "[1]", "value": 73.9, "unit": "%"}, {"measurement": "inhibition at 100 µM", "setting": "[1]", "value": 91.8, "unit": "%"}, {"measurement": "Remaining (T = 60 min)", "setting": "[2]", "value": 101.6, "unit": "%"}, {"measurement": "half-life", "setting": "[2]", "value": "> 145", "unit": "min"}]}, {"smiles": "O=C(O)Cc1ccccc1Nc1c(Cl)cccc1Cl", "note": "[Diclofenac, diclofenac]", "values": [{"measurement": "Remaining (T = 60 min)", "setting": "[2]", "value": 1.1, "unit": "%"}, {"measurement": "half-life", "setting": "[2]", "value": 9.2, "unit": "min"}]}, {"smiles": "CCC(CC)O[C@@H]1C=C(C(=O)O)C[C@H](NC(C)=O)[C@H]1NC(C)=O", "note": "[D]", "values": [{"measurement": "inhibitory activities against mutant NAs", "setting": "mutant NAs", "value": "enhanced inhibitory activities"}]}, {"smiles": "CCCS(=O)(=O)N[C@H]1CC(C(=O)O)=C[C@@H](OC(CC)CC)[C@@H]1NC(C)=O", "note": "[4c, (3R, 4R, 5S)-4-acetamido-5-(n-propylsulfonyl)amino-3-(pentan-3-yloxy)cyclohex-1-enecarboxylic acid]", "values": [{"measurement": "inhibition at 10 µM", "setting": "[1]", "value": 43.2, "unit": "%"}, {"measurement": "inhibition at 100 µM", "setting": "[1]", "value": 56.5, "unit": "%"}, {"measurement": "melting point", "value": "196.3 to 198.6", "unit": "°C"}]}, {"smiles": "CCCCS(=O)(=O)N[C@H]1CC(C(=O)O)=C[C@@H](OC(CC)CC)[C@@H]1NC(C)=O", "note": "[4d, (3R, 4R, 5S)-4-acetamido-5-(n-butylsulfonyl)amino-3-(pentan-3-yloxy) cyclohex-1-enecarboxylic acid]", "values": [{"measurement": "inhibition at 10 µM", "setting": "[1]", "value": 30.3, "unit": "%"}, {"measurement": "inhibition at 100 µM", "setting": "[1]", "value": 53.5, "unit": "%"}, {"measurement": "melting point", "value": "183.3 to 184.4", "unit": "°C"}]}, {"smiles": "CCC(CC)O[C@@H]1C=C(C(=O)O)C[C@H](N)[C@H]1NC(C)=O", "note": "[OC, oseltamivir carboxylate, reference compound]", "values": [{"measurement": "inhibition rate against NA from H5N1 subtype", "setting": "[1]; 10 µM", "value": 91.0, "unit": "%"}, {"measurement": "inhibition rate against NA from H5N1 subtype", "setting": "[1]; 100 µM", "value": 95.0, "unit": "%"}]}, {"smiles": "C[C@]12CC[C@H]3[C@@H](CCC4=CC(=O)CC[C@@]43C)[C@@H]1CC[C@@H]2O", "note": "[Testosterone, testosterone]", "values": [{"measurement": "Remaining (T = 60 min)", "setting": "[2]", "value": 3.8, "unit": "%"}, {"measurement": "half-life", "setting": "[2]", "value": 12.5, "unit": "min"}]}, {"smiles": "CCC(CC)O[C@@H]1CC(C(=O)O)=C[C@H](n2cc(C(O)CC)nn2)[C@H]1NC(C)=O", "note": "(stereo partly shown) [C]", "values": [{"measurement": "Ki", "setting": "neuraminidase", "value": 72, "unit": "nM"}]}, {"smiles": "CCC(CC)O[C@@H]1C=C(C(=O)O)C[C@H](NS(=O)(=O)c2ccc(N)cc2)[C@H]1NC(C)=O", "note": "[6k, (3R, 4R, 5S)-4-acetamido-5-((4-aminophenyl)sulfonyl)amino-3-(pentan-3-yloxy)cyclohex-1-enecarboxylic acid]", "values": [{"measurement": "inhibition at 100 µM", "setting": "[1]", "value": 12.5, "unit": "%"}, {"measurement": "melting point", "value": "176.7 to 181.4", "unit": "°C"}]}, {"smiles": "CCC(CC)O[C@@H]1C=C(C(=O)O)C[C@H](NS(=O)(=O)c2ccc([N+](=O)[O-])cc2)[C@H]1NC(C)=O", "note": "[4k, (3R, 4R, 5S)-4-acetamido-5-((4-nitrophenyl)sulfonyl)amino-3-(pentan-3-yloxy)cyclohex-1-enecarboxylic acid]", "values": [{"measurement": "inhibition at 10 µM", "setting": "[1]", "value": 0.5, "unit": "%"}, {"measurement": "inhibition at 100 µM", "setting": "[1]", "value": 38.9, "unit": "%"}, {"measurement": "melting point", "value": "187.4 to 189.2", "unit": "°C"}]}, {"smiles": "CCC(CC)O[C@@H]1C=C(C(=O)O)C[C@H](NS(=O)(=O)c2ccccc2N)[C@H]1NC(C)=O", "note": "[6i, (3R, 4R, 5S)-4-acetamido-5-((2-aminophenyl)sulfonyl)amino-3-(pentan-3-yloxy)cyclohex-1-enecarboxylic acid]", "values": [{"measurement": "inhibition at 10 µM", "setting": "[1]", "value": 63.8, "unit": "%"}, {"measurement": "inhibition at 100 µM", "setting": "[1]", "value": 86.6, "unit": "%"}, {"measurement": "melting point", "value": "161.8 to 164", "unit": "°C"}]}, {"smiles": "CCC(CC)O[C@@H]1C=C(C(=O)O)C[C@H](NCc2ccc(-c3ccccc3)cc2)[C@H]1NC(C)=O", "note": "[A]", "values": [{"measurement": "IC50", "setting": "[3]", "value": 1.9, "unit": "nM"}]}, {"smiles": "CCCCCS(=O)(=O)N[C@H]1CC(C(=O)O)=C[C@@H](OC(CC)CC)[C@@H]1NC(C)=O", "note": "[4e, (3R, 4R, 5S)-4-acetamido-5-(n-pentylsulfonyl)amino-3-(pentan-3-yloxy)cyclohex-1-enecarboxylic acid]", "values": [{"measurement": "inhibition at 10 µM", "setting": "[1]", "value": 28.5, "unit": "%"}, {"measurement": "inhibition at 100 µM", "setting": "[1]", "value": 50.5, "unit": "%"}, {"measurement": "melting point", "value": "179.1 to 182.8", "unit": "°C"}]}, {"smiles": "CCC(CC)O[C@@H]1C=C(C(=O)O)C[C@H](NCc2ccc(-c3cccs3)cc2)[C@H]1NC(C)=O", "note": "[B]", "values": [{"measurement": "IC50", "setting": "[3]", "value": 2.1, "unit": "nM"}]}, {"smiles": "CCC(CC)O[C@@H]1C=C(C(=O)O)C[C@H](NS(=O)(=O)c2cccc([N+](=O)[O-])c2)[C@H]1NC(C)=O", "note": "[4j, (3R, 4R, 5S)-4-acetamido-5-((3-nitrophenyl)sulfonyl)amino-3-(pentan-3-yloxy)cyclohex-1-enecarboxylic acid]", "values": [{"measurement": "inhibition at 10 µM", "setting": "[1]", "value": 20.3, "unit": "%"}, {"measurement": "inhibition at 100 µM", "setting": "[1]", "value": 33.8, "unit": "%"}, {"measurement": "melting point", "value": "114.3 to 115.9", "unit": "°C"}]}, {"smiles": "CCC(CC)O[C@@H]1C=C(C(=O)O)C[C@H](NS(=O)(=O)c2ccccc2[N+](=O)[O-])[C@H]1NC(C)=O", "note": "[4i, (3R, 4R, 5S)-4-acetamido-5-((2-nitrophenyl)sulfonyl)amino-3-(pentan-3-yloxy)cyclohex-1-enecarboxylic acid]", "values": [{"measurement": "inhibition at 10 µM", "setting": "[1]", "value": 32, "unit": "%"}, {"measurement": "inhibition at 100 µM", "setting": "[1]", "value": 70.1, "unit": "%"}]}, {"smiles": "CCC(CC)O[C@@H]1C=C(C(=O)O)C[C@H](NS(=O)(=O)C(F)(F)F)[C@H]1NC(C)=O", "note": "[4f, (3R, 4R, 5S)-4-acetamido-5-((trifluoromethyl)sulfonyl)amino-3-(pentan-3-yloxy)cyclohex-1-enecarboxylic acid]", "values": [{"measurement": "inhibition at 10 µM", "setting": "[1]", "value": 24.8, "unit": "%"}, {"measurement": "inhibition at 100 µM", "setting": "[1]", "value": 49.7, "unit": "%"}, {"measurement": "melting point", "value": "193.1 to 195.4", "unit": "°C"}]}, {"smiles": "CCC(CC)O[C@@H]1C=C(C(=O)O)C[C@H](NS(=O)(=O)c2cccc(N)c2)[C@H]1NC(C)=O", "note": "[6j, (3R, 4R, 5S)-4-acetamido-5-((3-aminophenyl)sulfonyl)amino-3-(pentan-3-yloxy)cyclohex-1-enecarboxylic acid]", "values": [{"measurement": "inhibition at 10 µM", "setting": "[1]", "value": 37.3, "unit": "%"}, {"measurement": "inhibition at 100 µM", "setting": "[1]", "value": 52.7, "unit": "%"}, {"measurement": "melting point", "value": "177.4 to 178.1", "unit": "°C"}]}, {"smiles": "CCC(CC)O[C@@H]1C=C(C(=O)O)C[C@H](NS(=O)(=O)c2ccc(C(F)(F)F)cc2)[C@H]1NC(C)=O", "note": "[4h, (3R, 4R, 5S)-4-acetamido-5-((4-(trifluoromethyl)phenyl)sulfonyl)amino-3-(pentan-3-yloxy)cyclohex-1-enecarboxylic acid]", "values": [{"measurement": "inhibition at 10 µM", "setting": "[1]", "value": 40.4, "unit": "%"}, {"measurement": "inhibition at 100 µM", "setting": "[1]", "value": 79.2, "unit": "%"}]}, {"smiles": "CCC(CC)O[C@@H]1C=C(C(=O)O)C[C@H](NS(=O)(=O)c2ccc(NC(C)=O)cc2)[C@H]1NC(C)=O", "note": "[4g, (3R, 4R, 5S)-4-acetamido-5-((4-(acetamido)pheny)sulfonyl)amino-3-(pentan-3-yloxy)cyclohex-1-enecarboxylic acid]", "values": [{"measurement": "inhibition rate against NA from H5N1 subtype", "setting": "[1]; 100 µM", "value": "little inhibition"}, {"measurement": "melting point", "value": "236.7 to 238.6", "unit": "°C"}]}, {"smiles": "CCC(CC)O[C@@H]1C=C(C(=O)O)C[C@H](NS(=O)(=O)CC)[C@H]1NC(C)=O", "note": "[4b, (3R, 4R, 5S)-4-acetamido-5-(ethylsulfonyl)amino-3-(pentan-3-yloxy)cyclohex-1-enecarboxylic acid]", "values": [{"measurement": "inhibition at 10 µM", "setting": "[1]", "value": 50.3, "unit": "%"}, {"measurement": "inhibition at 100 µM", "setting": "[1]", "value": 85.1, "unit": "%"}, {"measurement": "melting point", "value": "187.7 to 190", "unit": "°C"}]}]}
